Experimental findings from patent publication US20110230493A1, “1-OXA-8-Azaspiro [4,5] Decabe-8-Carboxamide Compounds as FAAH Inhibitors” (Pfizer Inc., priority 2008, published 2011) are described below.

One experiment deals with T1, human FAAH (Homo sapiens, UniProt O00519).
T1 construct: made in house; host or cells: E. coli
T1 sequence (O00519 1-579): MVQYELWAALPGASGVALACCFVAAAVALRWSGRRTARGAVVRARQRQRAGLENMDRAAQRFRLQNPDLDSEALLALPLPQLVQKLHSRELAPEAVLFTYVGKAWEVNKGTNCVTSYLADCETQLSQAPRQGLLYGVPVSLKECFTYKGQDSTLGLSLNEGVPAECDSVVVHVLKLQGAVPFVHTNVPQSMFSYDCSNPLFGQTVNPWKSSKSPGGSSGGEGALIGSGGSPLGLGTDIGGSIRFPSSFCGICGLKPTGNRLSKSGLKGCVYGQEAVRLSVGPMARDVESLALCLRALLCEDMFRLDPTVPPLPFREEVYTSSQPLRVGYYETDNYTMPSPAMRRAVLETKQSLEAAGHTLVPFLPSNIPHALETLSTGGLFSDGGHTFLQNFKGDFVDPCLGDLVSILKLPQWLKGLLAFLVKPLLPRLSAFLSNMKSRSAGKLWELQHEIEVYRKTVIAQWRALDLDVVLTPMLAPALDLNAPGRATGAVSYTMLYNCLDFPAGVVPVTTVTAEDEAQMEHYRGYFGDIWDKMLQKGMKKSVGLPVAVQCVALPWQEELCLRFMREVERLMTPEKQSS
The experiment is described as follows: FAAH assay, human FAAH enzyme inactivation (kinact/Ki). It counts as biochemical. The conditions noted are these: oleamide 50 μM, 30° C.; for kinact/KI: pH 7.4, in vitro, read-out: hFAAH kinact/Ki; for hFAAH kinact/Ki: in vitro, pH 7.4. The gist of the method:
(§1)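 Oleamide hydrolysis by 1-4 nM purified E. coli-expressed FAAH (substrate 50 μM = Km) coupled to GDH/NADH, pH 7.4 phosphate, 7.5% DMSO and EtOH, 30° C; A340 followed 90 min. kobs from mono-exponential fits; kinact/Ki from kobs-versus-concentration slope, multiplied by two.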

In a further experiment the target is T2, rat FAAH (Rattus norvegicus, UniProt P97612).
T2 construct: made in house; host or cells: E. coli
T2 sequence (P97612 1-579): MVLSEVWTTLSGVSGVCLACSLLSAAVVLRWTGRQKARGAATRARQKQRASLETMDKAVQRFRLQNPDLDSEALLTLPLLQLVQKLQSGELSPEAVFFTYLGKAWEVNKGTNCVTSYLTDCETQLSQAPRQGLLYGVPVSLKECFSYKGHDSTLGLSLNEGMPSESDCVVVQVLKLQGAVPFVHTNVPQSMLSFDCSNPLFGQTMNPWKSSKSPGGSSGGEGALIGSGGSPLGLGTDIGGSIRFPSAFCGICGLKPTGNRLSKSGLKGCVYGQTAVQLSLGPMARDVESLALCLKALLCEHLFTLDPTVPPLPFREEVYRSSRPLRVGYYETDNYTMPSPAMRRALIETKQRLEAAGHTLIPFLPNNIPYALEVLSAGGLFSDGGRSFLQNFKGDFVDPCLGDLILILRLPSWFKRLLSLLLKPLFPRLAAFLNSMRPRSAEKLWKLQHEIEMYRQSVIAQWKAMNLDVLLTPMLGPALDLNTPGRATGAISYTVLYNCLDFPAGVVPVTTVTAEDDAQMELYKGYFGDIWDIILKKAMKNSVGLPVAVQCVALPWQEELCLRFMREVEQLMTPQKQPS
The experiment is described as follows: FAAH assay, rat FAAH enzyme inactivation (kinact/Ki). It is filed as biochemical. The conditions noted are these: oleamide 50 μM, 30° C.; for kinact/KI: pH 7.4, in vitro, read-out: rFAAH kinact/Ki; for rFAAH kinact/Ki: in vitro, pH 7.4. In short, it runs like this: as §1

The next experiment concerns Male Sprague-Dawley Rats. The experiment can be described thus: In vivo Complete Freund's Adjuvant (CFA) efficacy assay, inhibition of allodynia. On the set-up: species or system rat; key: (+) indicates the test compound was determined to be efficacious at 3 mpk, oral dosing; (−) indicates the test compound was determined to not be efficacious at 3 mpk, oral dosing. The conditions noted are these: 3 mpk, oral dosing; PWT four hours postdose; p < 0.05 vs vehicle group. The gist of the method:
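Adult male Sprague-Dawley rats weighing 200 g-250 g received an intra-plantar injection of 150 uL Complete Freund's Adjuvant into the left hindpaw to induce inflammation. On day 4 after injection, baseline paw withdrawal threshold was measured with Von Frey hairs using the Dixon Up and Down method. Threshold was measured again at four hours postdose. Treatment groups were compared by ANOVA with Dunnett's two-tailed test.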

As for `O=C(Nc1cccnn1)N1CCC2(CC1)C[C@H](c1cccc(Oc3ccc(Br)cn3)c1)CO2` [Example 9, (3R)-3-{3-[(5-bromopyridin-2-yl)oxy]phenyl}-N-pyridazin-3-yl-1-oxa-8-azaspiro[4.5]decane-8-carboxamide], the kinact/KI at human FAAH came out at 4970 M⁻¹ s⁻¹; on rat FAAH it was 3340 M⁻¹ s⁻¹. Besides, the “CFA Efficacy” value with Male Sprague-Dawley Rats was “(+)”.

Consider `Cc1noc(NC(=O)N2CCC3(CC2)C[C@@H](c2ccc(OCc4ccc(Cl)cc4)cc2)CO3)c1C` [Example 50, (3S)-3-{4-[(4-chlorobenzyl)oxy]phenyl}-N-(3,4-dimethylisoxazol-5-yl)-1-oxa-8-azaspiro[4.5]decane-8-carboxamide], for which the kinact/KI on human FAAH amounted to 7470 M⁻¹ s⁻¹; at rat FAAH it was 9110 M⁻¹ s⁻¹. The “CFA Efficacy” value in the experiment with Male Sprague-Dawley Rats is recorded as “(−)”.

For `Cc1noc(NC(=O)N2CCC3(CC2)C[C@@H](c2cccc(-c4ccc(F)cc4)c2)CO3)c1C` [Example 60, (3S)—N-(3,4-dimethylisoxazol-5-yl)-3-(4′-fluorobiphenyl-3-yl)-1-oxa-8-azaspiro[4.5]decane-8-carboxamide], the results for the kinact/KI on human FAAH and at rat FAAH were 2110 M⁻¹ s⁻¹ and 2750 M⁻¹ s⁻¹, respectively. Moreover, the “CFA Efficacy” value in the experiment with Male Sprague-Dawley Rats is on record as “(+)”.

As for `O=C(Nc1cccnc1)N1CCC2(CC1)C[C@H](c1cccc(Oc3ccc(Br)cn3)c1)CO2` [Example 7, (3R)-3-{3-[(5-bromopyridin-2-yl)oxy]phenyl}-N-pyridin-3-yl-1-oxa-8-azaspiro[4.5]decane-8-carboxamide], the kinact/KI turned out to be 2890 M⁻¹ s⁻¹ on human FAAH and 526 M⁻¹ s⁻¹ on rat FAAH. Also, in the experiment on Male Sprague-Dawley Rats, the “CFA Efficacy” value is “(+)”.

As for `Cn1nnnc1NC(=O)N1CCC2(CC1)C[C@H](c1cccc(Oc3ccc(Cl)cn3)c1)CO2` [Example 81, 3-{3-[(5-chloropyridin-2-yl)oxy]phenyl}-N-(1-methyl-1H-tetrazol-5-yl)-1-oxa-8-azaspiro[4.5]decane-8-carboxamide], the kinact/KI on human FAAH came to 4890 M⁻¹ s⁻¹; at rat FAAH, 11200 M⁻¹ s⁻¹. Also, the “CFA Efficacy” value in the experiment on Male Sprague-Dawley Rats was “(+)”.

`O=C(Nc1cccnn1)N1CCC2(CC1)C[C@@H](c1cccc(Oc3ccc(Br)cn3)c1)CO2` [Example 10, (3S)-3-{3-[(5-bromopyridin-2-yl)oxy]phenyl}-N-pyridazin-3-yl-1-oxa-8-azaspiro[4.5]decane-8-carboxamide]: the figures for the kinact/KI at human FAAH and at rat FAAH were 2690 M⁻¹ s⁻¹ and 5890 M⁻¹ s⁻¹, respectively. In addition, the “CFA Efficacy” value with Male Sprague-Dawley Rats is “(+)”.

Take `Cc1noc(NC(=O)N2CCC3(CC2)C[C@@H](c2cccc(-c4ccc(F)c(F)c4)c2)CO3)c1C` [Example 57, (3S)-3-(3′,4′-difluorobiphenyl-3-yl)-N-(3,4-dimethylisoxazol-5-yl)-1-oxa-8-azaspiro[4.5]decane-8-carboxamide]: the kinact/KI stood at 1610 M⁻¹ s⁻¹ on human FAAH and 2110 M⁻¹ s⁻¹ at rat FAAH. Besides, in the experiment on Male Sprague-Dawley Rats, the “CFA Efficacy” value was “(+)”.

For the compound `Cc1noc(NC(=O)N2CCC3(CC2)CC(c2cccc(OC(F)(F)F)c2)CO3)c1C` (single isomer, unassigned) [Example 33, N-(3,4-dimethylisoxazol-5-yl)-3-[3-(trifluoromethoxy)phenyl]-1-oxa-8-azaspiro[4.5]decane-8-carboxamide], the kinact/KI at human FAAH was 3420 M⁻¹ s⁻¹; at rat FAAH, 4070 M⁻¹ s⁻¹. In addition, the “CFA Efficacy” value in the experiment with Male Sprague-Dawley Rats is “(+)”.

As to `Cc1noc(NC(=O)N2CCC3(CC2)CC(c2cccc(Cl)c2)CO3)c1C` (single isomer, unassigned) [Example 36, 3-(3-chlorophenyl)-N-(3,4-dimethylisoxazol-5-yl)-1-oxa-8-azaspiro[4.5]decane-8-carboxamide], the “hFAAH kinact/Ki” value on human FAAH was 2590 M⁻¹ s⁻¹. For the same compound, the “rFAAH kinact/Ki” value at rat FAAH amounted to 3830 M⁻¹ s⁻¹. In addition, in the experiment with Male Sprague-Dawley Rats, the “CFA Efficacy” value is “(+)”.

As to `Cn1nnnc1NC(=O)N1CCC2(CC1)C[C@H](c1cccc(-c3ccc(F)cc3)c1)CO2` [Example 96, (3R)-3-(4′-fluorobiphenyl-3-yl)-N-(1-methyl-1H-tetrazol-5-yl)-1-oxa-8-azaspiro[4.5]decane-8-carboxamide], the kinact/KI on human FAAH worked out at 26300 M⁻¹ s⁻¹; on rat FAAH, 2010 M⁻¹ s⁻¹. In addition, in the experiment with Male Sprague-Dawley Rats, the “CFA Efficacy” value is given as “(+)”.

As for `Cc1noc(NC(=O)N2CCC3(CC2)CC(c2cccc(OC(F)(F)F)c2)CO3)c1C` (single isomer, unassigned) [Example 34, N-(3,4-dimethylisoxazol-5-yl)-3-[3-(trifluoromethoxy)phenyl]-1-oxa-8-azaspiro[4.5]decane-8-carboxamide], the “hFAAH kinact/Ki” value on human FAAH worked out at 1840 M⁻¹ s⁻¹. Also, the “rFAAH kinact/Ki” value at rat FAAH was determined as 2610 M⁻¹ s⁻¹. Besides, the “CFA Efficacy” value with Male Sprague-Dawley Rats is reported as “(+)”.

In the case of `Cc1noc(NC(=O)N2CCC3(CC2)CC(c2ccc(OCc4cccc(Cl)c4)c(Cl)c2)CO3)c1C` (single isomer, unassigned) [Example 45, 3-{3-chloro-4-[(3-chlorobenzyl)oxy]phenyl}-N-(3,4-dimethylisoxazol-5-yl)-1-oxa-8-azaspiro[4.5]decane-8-carboxamide], the kinact/KI on human FAAH amounted to 6240 M⁻¹ s⁻¹; at rat FAAH it was 7130 M⁻¹ s⁻¹. For the same compound, the “CFA Efficacy” value in the experiment with Male Sprague-Dawley Rats is on record as “(+)”.

With `Cn1nnnc1NC(=O)N1CCC2(CC1)CC(c1noc(-c3ccc(OC(F)(F)F)cc3)n1)CO2` (single isomer, unassigned) [Example 84, N-(1-methyl-1H-tetrazol-5-yl)-3-{5-[4-(trifluoromethoxy)phenyl]-1,2,4-oxadiazol-3-yl}-1-oxa-8-azaspiro[4.5]decane-8-carboxamide], the figures for the kinact/KI at human FAAH and at rat FAAH were 8420 M⁻¹ s⁻¹ and 1500 M⁻¹ s⁻¹, respectively. Further, the “CFA Efficacy” value in the experiment on Male Sprague-Dawley Rats is on record as “(+)”.

For `Cc1noc(NC(=O)N2CCC3(CC2)CC(c2cccc(Cl)c2)CO3)c1C` (single isomer, unassigned) [Example 35, 3-(3-chlorophenol)-N-(3,4-dimethylisoxazol-5-yl)-1-oxa-8-azaspiro[4.5]decane-8-carboxamide], the kinact/KI at human FAAH is 2390 M⁻¹ s⁻¹. Also, on rat FAAH, the “rFAAH kinact/Ki” value came to 1560 M⁻¹ s⁻¹. The “CFA Efficacy” value in the experiment with Male Sprague-Dawley Rats is “(+)”.

As for `Cc1noc(NC(=O)N2CCC3(CC2)CC(c2cc(F)cc(Cl)c2)CO3)c1C` (single isomer, unassigned) [Example 39, 3-(3-chloro-5-fluorophenyl)-N-(3,4-dimethylisoxazol-5-yl)-1-oxa-8-azaspiro[4.5]decane-8-carboxamide], on human FAAH, the kinact/KI stood at 1810 M⁻¹ s⁻¹. For the same compound, the “rFAAH kinact/Ki” value at rat FAAH amounted to 1510 M⁻¹ s⁻¹. The “CFA Efficacy” value in the experiment with Male Sprague-Dawley Rats is on record as “(+)”.

Consider `Cc1noc(NC(=O)N2CCC3(CC2)C[C@H](c2ccc(OCc4ccc(F)c(F)c4)cc2)CO3)c1C` [Example 51, (3R)-3-{4-[(3,4-difluorobenzyl)oxy]phenyl}-N-(3,4-dimethylisoxazol-5-yl)-1-oxa-8-azaspiro[4.5]decane-8-carboxamide], for which the results for the kinact/KI on human FAAH and on rat FAAH were 16700 M⁻¹ s⁻¹ and 17300 M⁻¹ s⁻¹, respectively. In the experiment on Male Sprague-Dawley Rats, the “CFA Efficacy” value is given as “(+)”.

With `Cn1nnnc1NC(=O)N1CCC2(CC1)CC(c1cccc(Cl)c1)CO2` (single isomer, unassigned) [Example 79, 3-(3-chlorophenyl)-N-(1-methyl-1H-tetrazol-5-yl)-1-oxa-8-azaspiro[4.5]decane-8-carboxamide], the “hFAAH kinact/Ki” value on human FAAH is 5600 M⁻¹ s⁻¹. Moreover, the “rFAAH kinact/Ki” value on rat FAAH was 1970 M⁻¹ s⁻¹. For the same compound, in the experiment with Male Sprague-Dawley Rats, the “CFA Efficacy” value is “(+)”.
